Measured values taken from patent publication US20260234115A1, “LIPID COMPOUNDS, COMPOSITIONS, AND USES THEREOF” (Liberate Bio, Inc., priority 2023, published 2026).
Marks after values point to notes of the source that are not given here.

Legend:
[1] = Plate-based fluorescence (RiboGreen) assay: nucleic acid cargo content and encapsulation efficiency of LNPs; format: physicochemical; details: for EE (%) N/P:3 / EE (%) N/P:6: LNP
Protocol: (§1) Lipids and active ingredients (e.g., RNA, DNA, etc.) were assembled into LNPs using microfluidic mixing. An ethanol phase was prepared by solubilizing ionizable lipids (i.e., lipid compounds), phospholipids (e.g., DSPC), cholesterol, and PEG lipids in ethanol, at predetermined mol % ratios given in Table 2. An aqueous phase was prepared by diluting a nucleic acid cargo (e.g., firefly luciferase mRNA) in an acidified buffer (pH 4.0 citrate buffer, 50 mM). A chip with microfluidic mixing architecture (e.g., toroidal mixer) was used to mix the two phases at predetermined flow rate ratios (e.g., 9 ml/min for the aqueous phase and 3 ml/min for the ethanol phase). Resulting LNPs comprising the lipids and encapsulating the nucleic acid cargo were dialyzed against PBS pH 7.4 for 2 hours at room temperature in a 20 kDa MWCO dialysis membrane. Then, PBS was refreshed to continue dialysis overnight at 2-8 TC. Upon completion of the buffer exchange, LNPs were optionally concentrated using a ultracentrifugal unit with a 10-100 kDa MWCO membrane.
c. Plate-Based Fluorescence (RiboGreen) Assay
Nucleic acid cargos in the LNPs were quantified by RiboGreen assay, against a nucleic acid standard curve. LNPs encapsulating nucleic acid cargo were mixed with 1× Tris-EDTA (TE) and 2% triton in TE, separately, to achieve dilutions required by the assay. Then, the samples were heated at 30° C. and vortexed at 300 rpm. Samples were plated into 96-well plates and RiboGreen reagent was added into each well. Following incubation in the dark, fluorescence was measured from the wells, and plotted against the standard curve. Nucleic acid concentration obtained from the Triton-treated samples were used for total cargo concentration quantification. Only TE diluted sample fluorescence values were used to determine the non-encapsulated (free) cargo, and their ratio was used to determine the encapsulation efficiency (EE %).

[2] = Dynamic light scattering: LNP particle size and PDI; format: physicochemical; details: for PDI N/P:3 / Size (nm) N/P:3 / PDI N/P:6 / Size (nm) N/P:6: LNP
Protocol: as §1
d. Dynamic Light Scattering
LNPs were diluted with PBS pH 7.4 to predetermined dilution ranges based on the process step and LNP concentration. Following mixing, the particle size and PDI were measured by a dynamic light scattering instrument.

[3] = test system: mouse organs; assay: In vivo activity screening in mice: organ mean total flux (p/s) of luciferase activity after injection of F2 LNP pools (Table 6, FIG. 7A-7C); details: Mouse 1, dose 0.3 mg/kg, luciferase mRNA
Summary of the method: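 Luciferase output per organ is reported as mean total flux (p/s) from IVIS regions of interest. Organs were collected from perfused C57BL/6J mice and imaged 10-15 min after s.c. D-luciferin, 4-6 h after i.v. dosing. Dosing was 0.25-3 mg/kg luciferase mRNA in F2 LNP pools.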

[4] = LNP compositions for in vivo mouse study, four formulations (F1-F4) pooled, or pools of four compounds
[5] = LNP compositions for in vivo mouse study, four formulations (F1-F4) of the lipid compound pooled, or pools of four compounds (sixteen compositions)
[6] = LNP compositions for Formulation F2 Study

SMILES | EE % [1, 4] [%] | mRNA Content [1, 4] [µg/mL] | EE (%) N/P:6 ([1]; Formulation F1, N/P 6) [%] | EE (%) N/P:6 ([1]; Formulation F2, N/P 6) [%] | EE (%) N/P:6 ([1]; Formulation F3, N/P 6) [%] | EE (%) N/P:6 ([1]; Formulation F4, N/P 6) [%] | Particle Size (nm) [2, 5] [nm] | PDI [2, 4] | PDI N/P:6 ([2]; Formulation F1, N/P 6) | Size (nm) N/P:6 ([2]; Formulation F1, N/P 6) [nm] | PDI N/P:6 ([2]; Formulation F2, N/P 6) | Size (nm) N/P:6 ([2]; Formulation F2, N/P 6) [nm] | PDI N/P:6 ([2]; Formulation F3, N/P 6) | Size (nm) N/P:6 ([2]; Formulation F3, N/P 6) [nm] | PDI N/P:6 ([2]; Formulation F4, N/P 6) | Size (nm) N/P:6 ([2]; Formulation F4, N/P 6) [nm] | also measured
CCCCCCCC/C=C\CCCCCCCC(=O)OCC(COC(=O)CCCCCCC/C=C\CCCCCCCC)(COC(=O)CCCCCCC/C=C\CCCCCCCC)COC(=O)CCC(CCCCCC)OC(=O)NCCN1CCCC1 (stereo not shown) [Compound 1, 2-((oleoyloxy)methyl)-2-(((4-(((2-(pyrrolidin-1-yl)ethyl)carbamoyl)oxy)decanoyl)oxy)methyl)propane-1,3-diyl dioleate] | 99 | 102.4 | 100 | 100 | 100 | 100 | 89.9 | 0.143 | 0.072 | 74 ± 1 | 0.069 | 89 ± 2 | 0.051 | 107 ± 3 | 0.151 | 58 ± 2 | EE (%) N/P:3 ([1]; Formulation F1, N/P 3): 97%; EE (%) N/P:3 ([1]; Formulation F2, N/P 3): 98%; EE (%) N/P:3 ([1]; Formulation F3, N/P 3): 97%; EE (%) N/P:3 ([1]; Formulation F4, N/P 3): 98%; PDI N/P:3 ([2]; Formulation F1, N/P 3): 0.084; Size (nm) N/P:3 ([2]; Formulation F1, N/P 3): 85 ± 4 nm; PDI N/P:3 ([2]; Formulation F2, N/P 3): 0.052; Size (nm) N/P:3 ([2]; Formulation F2, N/P 3): 99 ± 2 nm; PDI N/P:3 ([2]; Formulation F3, N/P 3): 0.037; Size (nm) N/P:3 ([2]; Formulation F3, N/P 3): 136 ± 3 nm; PDI N/P:3 ([2]; Formulation F4, N/P 3): 0.153; Size (nm) N/P:3 ([2]; Formulation F4, N/P 3): 78 ± 1 nm; Organ Mean Total Flux Femur [3]: 0.8 p/s (×10^6); Organ Mean Total Flux Heart [3]: 0.1 p/s (×10^6); Organ Mean Total Flux Kidney [3]: 0.1 p/s (×10^6); Organ Mean Total Flux Liver [3]: 17.5 p/s (×10^6); Organ Mean Total Flux Lung [3]: 0.5 p/s (×10^6); Organ Mean Total Flux Muscle [3]: 0.6 p/s (×10^6); Organ Mean Total Flux Pancreas [3]: 0.2 p/s (×10^6); Organ Mean Total Flux Spleen [3]: 1.7 p/s (×10^6)
CCCCC/C=C\C/C=C\CCCCCCCC(=O)OCC(COC(=O)CCCCCCC/C=C\C/C=C\CCCCC)(COC(=O)CCC(CCCCCC)OC(=O)NCCN1CCCC1)COC(=O)CC12CC3CC(CC(C3)C1)C2 (stereo not shown) [Compound 5, [2-[[2-(1-adamantyl)acetyl]oxymethyl]-2-[[(9Z,12Z)-octadeca-9,12-dienoyl]oxymethyl]-3-[4-(2-pyrrolidin-1-ylethylcarbamoyloxy)decanoyloxy]propyl](9Z,12Z)-octadeca-9,12-dienoate] | 96 | 80 | 98 | 96 | 98 | 99 | 84.4 | 0.12 | 0.12 | 70 ± 0 | 0.08 | 88 ± 3 | 0.06 | 97 ± 3 | 0.16 | 66 ± 3 | –
CCCCC/C=C\CCOC(=O)CCCCCC(=O)OCC(COC(=O)CCCCCCOC(=O)C(CCCC)CCCCCC)(COC(=O)CCCCCC(=O)OCC/C=C\CCCCC)COC(=O)CCC(CCCCCC)OC(=O)NCCN1CCCC1 (stereo not shown) [Compound 16, O7-[2-[7-(2-butyloctanoyloxy)heptanoyloxymethyl]-2-[[7-[(Z)-non-3-enoxy]-7-oxo-heptanoyl]oxymethyl]-3-[4-(2-pyrrolidin-1-ylethylcarbamoyloxy)decanoyloxy]propyl]O1-[(Z)-non-3-enyl]heptanedioate] | 96 | 84 | 99 | 99 | 98 | 99 | 82.6 | 0.125 | 0.14 | 73 ± 7 | 0.07 | 82 ± 2 | 0.04 | 92 ± 0 | 0.15 | 64 ± 0 | –
CCCCCCC(CCC(=O)OCC(COC(=O)CCCCCCOC(=O)C(CCCC)CCCCCC)(COC(=O)CCCCCCOC(=O)C(CCCC)CCCCCC)COC(=O)CCCCCCOC(=O)C(CCCC)CCCCCC)OC(=O)NCCN1CCCC1 (stereo not shown) [Compound 18, [7-[2,2-bis[7-(2-butyloctanoyloxy)heptanoyloxymethyl]-3-[4-(2-pyrrolidin-1-ylethylcarbamoyloxy)decanoyloxy]propoxy]-7-oxo-heptyl]2-butyloctanoate] | 97 | 100 | 99 | 99 | 99 | 99 | 81.1 | 0.066 | 0.04 | 67 ± 1 | 0.02 | 78 ± 1 | 0.03 | 96 ± 2 | 0.05 | 65 ± 2 | EE % [1, 6]: 98%; PDI [2, 6]: 0.059; Particle Size (nm) [2, 6]: 92.2 nm
CCCCCCCCOC(CCC(=O)OCC(COC(=O)CCCCCCOC(=O)C(CCCC)CCCCCC)(COC(=O)CCC(CCCCCC)OC(=O)NCCN1CCCC1)COC(=O)CCC(OCCCCCCCC)OCCCCCCCC)OCCCCCCCC (stereo not shown) [Compound 20, [7-[2,2-bis(4,4-dioctoxybutanoyloxymethyl)-3-[4-(2-pyrrolidin-1-ylethylcarbamoyloxy)decanoyloxy]propoxy]-7-oxo-heptyl]2-butyloctanoate] | 97 | 98 | 100 | 100 | 100 | 100 | 79 | 0.02 | 0.06 | 64 ± 1 | 0.03 | 76 ± 1 | 0.03 | 91 ± 2 | 0.05 | 61 ± 1 | –
